Reference: patent publication US11701358B2, “Methods of inhibiting serum glucocorticoid induced kinase 1 (SGKI) as a treatment for salt and water balance diseases” (Indiana University Research and Technology Corporation, priority 2017, dated 2023)
“Also recorded” adds a separate entry of the source.

How the values were obtained:
[1] = tested on: epithelial sodium channel (ENaC); assay: Short-circuit current, basal ENaC activity in mCCD cells; assay type: cell-based, mouse; details: mCCD cell monolayer, Ussing chamber
Source text: The mouse cortical collecting duct (mCCD) cell line is a continuous, high resistance cell line that has the characteristics of the principal cells that line the kidney distal tubules. In this segment of the tubules, a transport protein, the epithelial sodium channel (ENaC), is responsible for the reabsorption of sodium from the kidney filtrate and the return of this ion to the bloodstream. As the concentration of sodium increases in the blood, the increased osmotic concentration will cause a compensatory movement of water from cells all over the body into the blood and an increase in blood volume and blood pressure. ENaC is an important transport protein and its function plays a major role in the regulation of whole body salt and water balance. Increases in the activity of ENaC can cause hypertension and many hypertension medications target the intracellular signaling pathways that culminate in the activation of ENaC. For example, ENaC is inhibited by the diuretic, amiloride.
The mCCD cell line was grown in tissue culture media consisting of Dulbecco's Minimal Essential media (DMEM):Hams F12 supplemented with 5% fetal bovine serum and penicillin (100 U/ml) and streptomycin ([…]). Cultured cells in both flasks and on Transwells had the media changed thrice weekly. […] In the current Example, the basal activity of ENaC in the cells is the parameter that is monitored.

[2] = tested on: Wpk rat model (TMEM67-/-) of hydrocephalus; assay: Head dimensions in homozygous Wpk rat model of hydrocephalus; assay type: in vivo; details: homozygous Wpk rats
Method: The effectiveness of SI 113 was tested in a genetic model of hydrocephalus, the Wpk rat model. In this model, the homozygous animals (TMEM67−/−) carry a single point mutation in TMEM67, one of a complex of proteins involved in the formation of the primary cilium. The homozygous affected animals have severe hydrocephalus and renal cystic disease. They typically survive for 18-21 days after birth, and the developing hydrocephalus can be monitored by measuring the head size in a manner analogous to measuring head sizes in human children.
In FIG. 1, the head sizes in both the horizontal and vertical dimensions are shown.

[3] = tested on: PCP-R porcine choroid plexus cell line; assay: Short-circuit current, TRPV4 agonist-stimulated transepithelial ion transport in PCP-R cells; assay type: cell-based; details: PCP-R cells in Ussing chamber, pretreatment at t=-10 minutes, agonist at t=0
Method: PCP-R (porcine choroid plexus, high resistance) cell line was grown to confluence on permeable Transwell supports. The PCP-R cell line is grown in tissue culture media consisting of Dulbecco's Minimal Essential media (DMEM) supplemented with 10% fetal bovine serum and penicillin (100 U/ml) and streptomycin ([…]). Cultured cells in both flasks and on Transwells had the media changed thrice weekly. After attaining a high resistance phenotype (days 10-12 after seeding on the Transwells), the cultures were removed from the plastic supports and mounted in an Ussing chamber for electrophysiological measurements (short-circuit current (SCC)) of net transepithelial ion transport. A negative deflection is indicative of anion absorption (CSF to blood) and/or cation secretion (blood to CSF). GSK1016797 is an agonist of TRPV4, an osmo- and mechano-sensitive channel which, when stimulated, allows Ca^2+ to enter the cells. The increased intracellular Ca^2+ secondarily stimulates Ca^2+-sensitive channels. In the case of the PCP-R cells, this process stimulates Ca^2+-sensitive K^+ channels causing the secretion of K^+ and, secondarily, water into the cerebrospinal fluid. […] All cultures were stimulated with GSK1016797 at time t=0.

[4] = tested on: heterozygous Wpk rat model of hydrocephalus; assay: MRI of lateral ventricular volumes in heterozygous Wpk rat model; assay type: in vivo; details: heterozygous Wpk rats, 8 mg/kg BW i.p. daily for 8 days, versus vehicle, P=0.039 Mann-Whitney
Method: FIG. 4 depicts MRI quantification of the effects of SI113 on hydrocephalus in the heterozygous Wpk rat model. The bars represent the difference in volumes of the lateral ventricles measured at postnatal (P) day 7 and P15. The volumes were measured by MRI before treatment with vehicle or SI 113 (8 mg/kg BW; i.p. daily) and again after 8 days of treatment. The difference in the volume for each of the animals was calculated and the averages ±SEM are shown in the bar graph. The number of animals in each study is noted as n. Approximately equal numbers of male and female animals were used.
The Wpk rat model is unique in that the genetic defect causes a severe hydrocephalus in the homozygous affected animals (see FIG. 1) and a mild hydrocephalus in the heterozygous animals (see FIG. 4). The heterozygous animals live for at least year. […] In this model the hydrocephalus is not severe enough to change head dimensions so the effect of the SI113 on the hydrocephalus was measured using MRI. […] Volumes of interest on lateral ventricles were determined from threshold based image segmentation of native cerebrospinal fluid contrast, and images were quantified for lateral ventricular volumes using Analyze 12.0. The MRIs were conducted on each animal on day 7 and day 15 and the differences in lateral ventricular volumes were calculated (FIG. 4).

Row | Compound | short-circuit current (SCC), transepithelial sodium transport via ENaC [1] | head dimensions of treated hydrocephalic animals compared with wild-type animals ([2]; after treatment post-natal day 7 to day 15) | head dimensions (horizontal and vertical) of hydrocephalic animals ([2]; treatment post-natal day 7 to day 15, versus vehicle, *p=0.009, # p=0.03, 1-tailed t-test) | response (short-circuit current) to TRPV4 agonist GSK1016797 [3] | hydrocephalus, difference in lateral ventricular volumes between P7 and P15 by MRI [4]
1 | N=C(N)NC(=O)c1nc(Cl)c(N)nc1N [amiloride, reference compound] | strongly inhibited |  |  |  | 
2 | OCCNc1nc(NCCc2ccccc2)c2cnn(/C=C/c3ccccc3)c2n1 [SI 113, 2-({1-(2-phenylethenyl)-4-[(2-phenylethy)amino]-1H-pyrazolo[3,4-d]pyrimidin-6-yl}amino)ethanol] | caused a decrease in the SCC | not statistically different than the wild-type animals | significantly decreased the head dimensions | completely blocked | statistically significant difference; also recorded: effectively decreased the hydrocephalus
